Laboratory results published in paper PMC2841507 (Journal of medicinal chemistry, 2010).

What was measured:
[1] = test system: nicotine-induced antinociception (tail-flick); assay: Blockade of nicotine-induced antinociception, tail-flick test; assay type: in vivo, mice; conditions: ratio of AD50 values, relative to 2a
human DAT = human DAT (Homo sapiens, UniProt Q01959); assay: cell-based; assay type: cell-based
human NET = human NET (Homo sapiens, UniProt P23975); assay: cell-based; assay type: cell-based
human α3β4*-nAChR = human α3β4*-nAChR (Homo sapiens, UniProt P30926+P32297); assay: 86Rb+ efflux assay, SH-SY5Y cells; assay type: cell-based
human α4β2-nAChR = human α4β2-nAChR (Homo sapiens, UniProt P17787+P43681); assay: 86Rb+ efflux assay, SH-EP1-hα4β2 cells; assay type: cell-based
[2] = target: human muscle-type α1β1γδ- (α1*-) nAChR (Homo sapiens, UniProt P02708+P07510+P11230+Q07001); assay: 86Rb+ efflux assay, TE671/RD cells; assay type: cell-based
human α4β4-nAChR = human α4β4-nAChR (Homo sapiens, UniProt P30926+P43681); assay: 86Rb+ efflux assay, SH-EP1-hα4β4 cells; assay type: cell-based

Compound	times more potent than 2a in blocking nicotine-induced antinociception in the tail-flick test [1]	IC50 (human DAT) [nM]	IC50 (human NET) [nM]	IC50 (human α3β4*-nAChR) [µM]	IC50 (human α4β2-nAChR) [µM]	other results
Cc1cccc(C(=O)C(C)NC(C)(C)C)c1 (stereo not drawn) [Compound 2d]	24 fold	–	–	–	–	–
CC(C(=O)c1cccc([N+](=O)[O-])c1)N1CCCC1 (stereo not drawn) [Compound 2ee, 2-(N-Pyrrolidinyl)-3’-nitropropiophenone]	–	10000 ± 1900	4100 ± 540	53	–	–
CC(NC(C)(C)C)C(=O)c1cc(Cl)cc(Cl)c1 (stereo not drawn) [Compound 2n]	43 fold	–	–	–	–	–
CC(C(=O)c1cccc(F)c1)N1CCCC1 (stereo not drawn) [Compound 2aa, 2-(N-Pyrrolidinyl)-3’-fluoropropiophenone]	–	156 ± 46	135 ± 36	35	71	fold more potent than 2a in inhibition of DA uptake (human DAT): 4 fold; fold more potent than 2a in inhibition of NE uptake (human NET): 14 fold
CCC(NC(C)(C)C)C(=O)c1ccc(Cl)c(Cl)c1 (stereo not drawn) [Compound 2w]	24 fold	–	–	–	–	–
Cc1ccc(C(=O)C(C)NC(C)(C)C)cc1 (stereo not drawn) [Compound 2i]	~ 10 fold	–	–	–	–	–
Cc1cccc(C(=O)C(C)N2CCCC2)c1 (stereo not drawn) [Compound 2cc, 2-(N-Pyrrolidinyl)-3’-methylpropiophenone]	–	414 ± 89	577 ± 61	11	56	IC50 [2]: 53 µM
CC(NC(C)(C)C)C(=O)c1cccc(Br)c1 (stereo not drawn) [Compound 2c]	~ 10 fold	–	–	–	–	–
CC(NC(C)(C)C)C(=O)c1ccc(Br)cc1 (stereo not drawn) [Compound 2h]	~ 10 fold	–	–	–	–	–
COc1cccc(C(=O)C(C)N2CCCC2)c1 (stereo not drawn) [Compound 2dd, 2-(N-Pyrrolidinyl)-3’-methoxypropiophenone]	–	452 ± 82	718 ± 130	16	57	IC50 [2]: 87 µM
CC(C(=O)c1cccc(Cl)c1)N1CCCCC1 (stereo not drawn) [Compound 2ff]	24 fold	–	–	–	–	–
CC(NC(C)(C)C)C(=O)c1ccc(F)c(F)c1 (stereo not drawn) [Compound 2j]	24 fold	–	–	–	–	–
CC(C(=O)c1cccc(Br)c1)N1CCCC1 (stereo not drawn) [Compound 2bb, 2-(N-Pyrrolidinyl)-3’-bromopropiophenone]	–	750 ± 173	1180 ± 270	11	74	IC50 (human α4β4-nAChR): 64 µM; IC50 [2]: 19 µM
